Patent US20240099295A1, “CELL TREATMENT AGENT” (AYA Inc., priority 2021, published 2024)

Tests used:
[1] = system: rat corneal epithelial cells; assay: Re-adhesion of detached and suspended cells to calcium phosphate film (F-actin fluorescent staining); type: cell-based
Description: Whether the cells having been detached and suspended as described above were re-adhered by calcium ions was examined. Part of the bottom of the culture dish was coated with a slurry of calcium phosphate fine powder mixed with distilled water and dried in an oven to separately prepare a culture dish in which a film of fine powder of calcium phosphate was stuck to the bottom of the dish. Then, to the culture dish with the calcium phosphate film and the culture dish without the film (control), a cell culture solution containing the detached and suspended cells as described above was added, the culture dishes were placed on the base of a shaker (product name: Laboshaker Model BC-740, available from BIO CRAFT Corporation), the shaking intensity was set to the lowest level, the shaking frequency was set to 4 times/min, and the cells were cultured under normal cell culture conditions (37° C., CO2 concentration of 5%, humidity of 100%) for 24 hours while the culture dishes were gently shaken. The culture solution in each culture dish was then removed, and the culture dishes were gently washed with 10% FBS cell culture solution, and then viable cells adhered to the inner wall of the culture dishes were observed under a microscope (inverted fluorescence/visible microscope with cooled CCD camera, IX83, available from Olympus Corporation) by the fluorescent staining method of F-actin using viable cell staining by a fluorescent dye (CytoPainter F-actin Staining Kit, available from Abcam). The fluorescent staining method of F-action can be performed, for example, according to the method described in Vera D M, Robert J E, Ved P S, Orrin S and John S C, “Optimizing leading edge F-actin labeling using multiple actin probes, fixation methods and imaging modalities” BIOTECHNIQUES, VOL. 66, NO. 3, (2019), or in Michael M, Matthias P and Robert G “Actin visualization at a glance” n J. Cell Sci. 130, 525-530. (2017) doi:10.1242/jcs.20448.
In FIGS. 1 to 4, the part that looks white or gray is a viable cell group stained with the fluorescent dye.

[2] = system: Rat corneal epithelial cell; assay: Cell protective effect: cell survival during preservation (trypan blue excretion test); type: cell-based; details: for Average survival rate at 72 hours: refrigerator 4° C.; for Average survival rate at 24 hours: normal temperature (22° C.)
Description: Using a normal serum-free cell culture solution without FBS or a Ringer's solution (Otsuka Pharmaceutical Co., Ltd., Lactec Injection, Japanese Pharmacopoeia, Sodium L-lactate Ringer's solution) as a conditioning solution for use, for example, in preservation and transportation of cells, sodium alginate (Na alginate) (Fuji Chemical Industry Co., Ltd. Snow Algin SSL, viscosity of 1% aqueous solution is 30 mPa·s at 20° C.) was added to the conditioning solution in the concentrations shown in Table 1 to prepare cell preservation solutions. To each cell preservation solution, the above-described cells were added at a concentration of 10^6 cells/ml to satisfy the conditions shown in Table 1, and the resultant solution was left to stand in a room at normal temperature (22° C.) for 24 hours, and then whether cells were alive or dead was determined, and rates of viable cells (average survival rate (%)) were calculated and compared. Cell viability was determined by the trypan blue excretion test that is the ordinary method of confirming cell viability. The excretion test was performed according to the method described in “Denizot F., et al., Rapid colorimetric assay for cell growth and survival. Modifications to the tetrazolium dye procedure giving improved sensitivity and reliability. J. Immunol. Methods, 89, 271-277 (1986)”. The results are of N=4.
The average survival rate (%) was determined in the same manner as in Experimental Example (1-1-1) except that the preservation conditions were changed to leaving still for 72 hours in a refrigerator at a set temperature of 4° C. The results are of N=4.
The average survival rate (%) of cells was determined in the same manner as in Experimental Example (1-1-1) except that dextran sulfate (dextran sulfate special grade reagent available from NACALAI TESQUE, INC.) was used instead of sodium alginate and the conditions were as shown in Table 3. The results are of N=4.
The average survival rate (%) of cells was determined in the same manner as in Experimental Example (1-2-1) except that the preservation conditions were changed to leaving still for 72 hours in a refrigerator at a set temperature of 4° C. and to conditions shown in Table 4. The results are of N=3 in the case of using a serum-free cell culture solution, and are of N=4 in the case of using a Ringer's solution.
The average survival rate (%) of cells was determined in the same manner as in Experimental Example (1-1-1) except that heparin sodium (Heparin Na Mochida, unfractionated heparin, available from Mochida Pharmaceutical Co., Ltd.) was used instead of alginic acid and the conditions were as shown in Table 5. The results are of N=4.
The average survival rate (%) of cells was determined in the same manner as in Experimental Example (1-3-1) except that the preservation conditions were changed to leaving still for 72 hours in a refrigerator at a set temperature of 4° C. and to conditions shown in Table 6. The results are of N=4.
The average survival rate (%) of cells was determined in the same manner as in Experimental Example (1-3-2) except that urinastatin (Miraclid injection solution, containing 2.5 million units, available from Mochida Pharmaceutical Co., Ltd.) was used as a proteolytic enzyme inhibitor instead of heparin sodium and the conditions were as shown in Table 7. The results are of N=4. “Unit (U)” in the unit of concentration (units/mL) of inhibitor a in Table 7 can be measured, for example, by the quantitative method of urinastatin in the Japanese Pharmacopoeia 15th revision. Specifically, absorbance at 405 nm of a sample solution is measured with a UV 240 spectrophotometer, and concentration of urinastatin can be calculated from a calibration curve prepared in advance. […]

[3] = culture dish with calcium phosphate film, 24 hours culture under gentle shaking (FIGS. 1 and 2)
[4] = culture dish without calcium phosphate film (control), 24 hours culture under gentle shaking (FIGS. 3 and 4)

Substance	Re-adhesion of detached and suspended viable cells [1, 3]	Re-adhesion of detached and suspended viable cells [1, 4]	Average survival rate at 72 hours ([2]; DS 0.003 mg/mL, Ringer's solution) [%]	Average survival rate at 24 hours ([2]; DS 0.003 mg/mL, serum-free cell culture solution) [%]	Average survival rate at 72 hours ([2]; DS 0.003 mg/mL, serum-free cell culture solution, N=3) [%]	Average survival rate at 72 hours ([2]; DS 0.1 mg/mL, Ringer's solution) [%]	Average survival rate at 24 hours ([2]; DS 0.1 mg/mL, serum-free cell culture solution) [%]	Average survival rate at 72 hours ([2]; DS 0.1 mg/mL, serum-free cell culture solution, N=3) [%]	Average survival rate at 72 hours ([2]; DS 1 mg/mL, Ringer's solution) [%]	Average survival rate at 24 hours ([2]; DS 1 mg/mL, serum-free cell culture solution) [%]	Average survival rate at 72 hours ([2]; DS 1 mg/mL, serum-free cell culture solution, N=3) [%]	Average survival rate at 72 hours ([2]; Heparin Na 5 units/mL, Ringer's solution) [%]	Average survival rate at 24 hours ([2]; Heparin Na 5 units/mL, serum-free cell culture solution) [%]	Average survival rate at 72 hours ([2]; Heparin Na 25 units/mL, Ringer's solution) [%]	Average survival rate at 24 hours ([2]; Heparin Na 25 units/mL, serum-free cell culture solution) [%]	Average survival rate at 72 hours ([2]; Heparin Na 125 units/mL, Ringer's solution) [%]	Average survival rate at 24 hours ([2]; Heparin Na 125 units/mL, serum-free cell culture solution) [%]
dextran sulfate [DS]	numerous viable cells were observed adhering	a very small number of viable cells adhered	67	62	76	71	71	79	60	73	73	–	–	–	–	–	–
heparin sodium [Heparin Na, reference compound]	numerous viable cells were observed adhering	a very small number of viable cells adhered	–	–	–	–	–	–	–	–	–	70	69	72	75	74	76
